# ChEMBL document CHEMBL1201862, “PubChem BioAssay data set” (2004)
#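 Results reflect a 48-hour exposure of cells in 96-well plates to compound at five concentrations. GI50: concentration for 50% inhibition of growth.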 The source made the active and inactive calls. Rule as the data show it: active = GI50 up to about 1.1 µM and inactive = higher.
# How the values were obtained:
# Test in all cases: NCI-60 cell line screen, 48 h
# BT-549 = system: BT-549
# DU-145 = system: DU-145
# ACHN = system: ACHN
# MDA-N = system: MDA-N
# TK-10 = system: TK-10
# PC-3 = system: PC-3
# M14 = system: M14
# T47D = system: T47D
# HOP-18 = system: HOP-18
# HOP-92 = system: HOP-92
# MDA-MB-435 = system: MDA-MB-435
# 786-0 = system: 786-0
# M19-MEL = system: M19-MEL
# Hs-578T = system: Hs-578T
# KM-20L2 = system: KM-20L2
# DMS-273 = system: DMS-273
# DLD-1 = system: DLD-1
# SR = system: SR
# SNB-78 = system: SNB-78
# DMS-114 = system: DMS-114
# XF498 = system: XF498
# MDA-MB-231 = system: MDA-MB-231
# HL-60 = system: HL-60
# IGROV-1 = system: IGROV-1
# SF-295 = system: SF-295
# SK-MEL-28 = system: SK-MEL-28
# LOX IMVI = system: LOX IMVI
# SF-539 = system: SF-539
# MOLT-4 = system: MOLT-4
# Malme-3M = system: Malme-3M
# OVCAR-5 = system: OVCAR-5
# EKVX = system: EKVX
# CCRF-CEM = system: CCRF-CEM
# RPMI-8226 = system: RPMI-8226
# A498 = system: A498
# SN12C = system: SN12C
# LXFL 529 = system: LXFL 529
# HCT-116 = system: HCT-116
# HT-29 = system: HT-29
# HOP-62 = system: HOP-62
# NCI-H23 = system: NCI-H23
# K562 = system: K562
# NCI-H226 = system: NCI-H226
# NCI-H460 = system: NCI-H460
# SK-OV-3 = system: SK-OV-3
# UACC-257 = system: UACC-257
# COLO 205 = system: COLO 205
# UO-31 = system: UO-31
# SK-MEL-5 = system: SK-MEL-5
# HCT-15 = system: HCT-15
# SK-MEL-2 = system: SK-MEL-2
# KM12 = system: KM12
# SNB-75 = system: SNB-75
# SW-620 = system: SW-620
# OVCAR-8 = system: OVCAR-8
# NCI-H522 = system: NCI-H522
# CAKI-1 = system: CAKI-1
# HCC 2998 = system: HCC 2998
# UACC-62 = system: UACC-62
# A549 = system: A549
# SNB-19 = system: SNB-19
# U-251 = system: U-251
# OVCAR-4 = system: OVCAR-4
# OVCAR-3 = system: OVCAR-3
# RXF 393 = system: RXF 393
# SF-268 = system: SF-268
smiles,measurement,setting,value
C/C=C(\C)c1cc(=O)c2c(C)cc3c(c2o1)C(=O)c1c(O)c(C2CC(C)(N(C)C)C(O)C(C)O2)cc(C2CC(N(C)C)C(O)C(C)O2)c1C3=O (stereo unspecified),GI50,BT-549,223 nM (active)
same,GI50,DU-145,138 nM (active)
same,GI50,ACHN,0.0789 µM (active)
same,GI50,MDA-N,178 nM (active)
same,GI50,TK-10,0.237 µM (active)
same,GI50,PC-3,229 nM (active)
same,GI50,M14,0.129 µM (active)
same,GI50,T47D,257 nM (active)
same,GI50,HOP-18,0.154 µM (active)
same,GI50,HOP-92,0.256 µM (active)
same,GI50,MDA-MB-435,217 nM (active)
same,GI50,786-0,0.13 µM (active)
same,GI50,M19-MEL,3.21 µM (inactive)
same,GI50,Hs-578T,247 nM (active)
same,GI50,KM-20L2,2.81 µM (inactive)
same,GI50,DMS-273,1.91 µM (inactive)
same,GI50,DLD-1,2.31 µM (inactive)
same,GI50,SR,0.267 µM (active)
same,GI50,SNB-78,3.87 µM (inactive)
same,GI50,DMS-114,1.5 µM (inactive)
same,GI50,XF498,< 0.01 µM (active)
same,GI50,MDA-MB-231,156 nM (active)
COc1ccc(C2C(Cl)C(=O)N2NC(=O)c2ccc(N)cc2)cc1 (stereo unspecified),GI50,HL-60,> 100 µM (inactive)
same,GI50,ACHN,> 100 µM (inactive)
same,GI50,IGROV-1,> 100 µM (inactive)
same,GI50,SF-295,> 100 µM (inactive)
same,GI50,SK-MEL-28,> 100 µM (inactive)
same,GI50,TK-10,> 100 µM (inactive)
same,GI50,LOX IMVI,> 100 µM (inactive)
same,GI50,SF-539,> 100 µM (inactive)
same,GI50,MOLT-4,> 100 µM (inactive)
same,GI50,M14,> 100 µM (inactive)
same,GI50,Malme-3M,> 100 µM (inactive)
same,GI50,OVCAR-5,> 100 µM (inactive)
same,GI50,EKVX,> 100 µM (inactive)
same,GI50,CCRF-CEM,93.5 µM (inactive)
same,GI50,RPMI-8226,> 100 µM (inactive)
same,GI50,A498,> 100 µM (inactive)
same,GI50,SN12C,> 100 µM (inactive)
same,GI50,LXFL 529,> 100 µM (inactive)
same,GI50,HOP-92,> 100 µM (inactive)
same,GI50,HCT-116,> 100 µM (inactive)
same,GI50,HT-29,> 100 µM (inactive)
same,GI50,HOP-62,> 100 µM (inactive)
same,GI50,786-0,> 100 µM (inactive)
same,GI50,NCI-H23,> 100 µM (inactive)
same,GI50,M19-MEL,> 100 µM (inactive)
same,GI50,K562,> 100 µM (inactive)
same,GI50,NCI-H226,> 100 µM (inactive)
same,GI50,NCI-H460,> 100 µM (inactive)
same,GI50,SK-OV-3,> 100 µM (inactive)
same,GI50,UACC-257,> 100 µM (inactive)
same,GI50,KM-20L2,> 100 µM (inactive)
same,GI50,DMS-273,> 100 µM (inactive)
same,GI50,COLO 205,> 100 µM (inactive)
same,GI50,UO-31,> 100 µM (inactive)
same,GI50,DLD-1,> 100 µM (inactive)
same,GI50,SK-MEL-5,> 100 µM (inactive)
same,GI50,HCT-15,> 100 µM
same,GI50,SK-MEL-2,> 100 µM (inactive)
same,GI50,KM12,> 100 µM (inactive)
same,GI50,SNB-75,> 100 µM (inactive)
same,GI50,SW-620,> 100 µM (inactive)
same,GI50,SNB-78,> 100 µM (inactive)
same,GI50,OVCAR-8,> 100 µM (inactive)
same,GI50,DMS-114,> 100 µM (inactive)
same,GI50,NCI-H522,> 100 µM (inactive)
same,GI50,CAKI-1,> 100 µM (inactive)
same,GI50,HCC 2998,> 100 µM (inactive)
same,GI50,UACC-62,> 100 µM (inactive)
same,GI50,A549,> 100 µM (inactive)
same,GI50,SNB-19,> 100 µM (inactive)
same,GI50,XF498,> 100 µM (inactive)
same,GI50,U-251,> 100 µM (inactive)
same,GI50,OVCAR-4,> 100 µM (inactive)
same,GI50,OVCAR-3,> 100 µM (inactive)
CC(C)=CCCC1(C)C=Cc2c(c(C)cc3c2[nH]c2cc(O)ccc23)O1 (stereo unspecified),GI50,HL-60,22.5 µM (inactive)
same,GI50,ACHN,> 25 µM (inactive)
same,GI50,IGROV-1,> 25 µM (inactive)
same,GI50,SK-MEL-28,> 25 µM (inactive)
same,GI50,TK-10,> 25 µM (inactive)
same,GI50,LOX IMVI,> 25 µM (inactive)
same,GI50,SF-539,> 25 µM (inactive)
same,GI50,MOLT-4,> 25 µM (inactive)
same,GI50,M14,> 25 µM (inactive)
same,GI50,Malme-3M,> 25 µM (inactive)
same,GI50,OVCAR-5,> 25 µM (inactive)
same,GI50,CCRF-CEM,> 25 µM (inactive)
same,GI50,RPMI-8226,> 25 µM (inactive)
same,GI50,RXF 393,> 25 µM (inactive)
same,GI50,HOP-18,7.36 µM (inactive)
same,GI50,SN12C,> 25 µM (inactive)
same,GI50,LXFL 529,> 25 µM (inactive)
same,GI50,HOP-92,> 25 µM (inactive)
same,GI50,HCT-116,> 25 µM (inactive)
same,GI50,HT-29,> 25 µM (inactive)
same,GI50,HOP-62,> 25 µM (inactive)
same,GI50,786-0,> 25 µM (inactive)
same,GI50,M19-MEL,> 25 µM (inactive)
same,GI50,K562,> 25 µM (inactive)
same,GI50,NCI-H226,> 25 µM (inactive)
same,GI50,NCI-H460,> 25 µM (inactive)
same,GI50,SK-OV-3,> 25 µM (inactive)
same,GI50,KM-20L2,> 25 µM (inactive)
same,GI50,DMS-273,> 25 µM (inactive)
same,GI50,COLO 205,> 25 µM (inactive)
same,GI50,UO-31,> 25 µM (inactive)
same,GI50,DLD-1,> 25 µM (inactive)
same,GI50,SK-MEL-5,> 25 µM (inactive)
same,GI50,SR,24 µM (inactive)
same,GI50,HCT-15,> 25 µM
same,GI50,SK-MEL-2,> 25 µM (inactive)
same,GI50,KM12,> 25 µM (inactive)
same,GI50,SW-620,> 25 µM (inactive)
same,GI50,OVCAR-8,> 25 µM (inactive)
same,GI50,DMS-114,> 25 µM (inactive)
same,GI50,NCI-H522,6.82 µM (inactive)
same,GI50,HCC 2998,> 25 µM (inactive)
same,GI50,UACC-62,> 25 µM (inactive)
same,GI50,A549,> 25 µM (inactive)
same,GI50,SNB-19,> 25 µM (inactive)
same,GI50,XF498,> 25 µM (inactive)
same,GI50,U-251,> 25 µM (inactive)
same,GI50,OVCAR-4,22.7 µM (inactive)
same,GI50,OVCAR-3,> 25 µM (inactive)
same,GI50,SF-268,> 25 µM (inactive)
